Data reported in US20080311578A1, “System for screening eukaryotic membrane proteins” (Hydra Biosciences, Inc., priority 2004, published 2008).

Tests used:
Format in all cases: cell-based
[1] = target: T1, human CatSper 1 calcium channel (Homo sapiens, UniProt Q8NEC5); assay: aequorin calcium flux assay in bacterial cells expressing hCatSper1; details: CatSper1 expressed in bacterial cells, FIG. 5
T1 construct: expressed in transfected cells; host or cells: E. coli (Rosetta-Gami B (DE3) pLysS, Novagen), modified pET dual-T7 vector, co-expressed with apo-aequorin
T1 sequence (Q8NEC5 1-780): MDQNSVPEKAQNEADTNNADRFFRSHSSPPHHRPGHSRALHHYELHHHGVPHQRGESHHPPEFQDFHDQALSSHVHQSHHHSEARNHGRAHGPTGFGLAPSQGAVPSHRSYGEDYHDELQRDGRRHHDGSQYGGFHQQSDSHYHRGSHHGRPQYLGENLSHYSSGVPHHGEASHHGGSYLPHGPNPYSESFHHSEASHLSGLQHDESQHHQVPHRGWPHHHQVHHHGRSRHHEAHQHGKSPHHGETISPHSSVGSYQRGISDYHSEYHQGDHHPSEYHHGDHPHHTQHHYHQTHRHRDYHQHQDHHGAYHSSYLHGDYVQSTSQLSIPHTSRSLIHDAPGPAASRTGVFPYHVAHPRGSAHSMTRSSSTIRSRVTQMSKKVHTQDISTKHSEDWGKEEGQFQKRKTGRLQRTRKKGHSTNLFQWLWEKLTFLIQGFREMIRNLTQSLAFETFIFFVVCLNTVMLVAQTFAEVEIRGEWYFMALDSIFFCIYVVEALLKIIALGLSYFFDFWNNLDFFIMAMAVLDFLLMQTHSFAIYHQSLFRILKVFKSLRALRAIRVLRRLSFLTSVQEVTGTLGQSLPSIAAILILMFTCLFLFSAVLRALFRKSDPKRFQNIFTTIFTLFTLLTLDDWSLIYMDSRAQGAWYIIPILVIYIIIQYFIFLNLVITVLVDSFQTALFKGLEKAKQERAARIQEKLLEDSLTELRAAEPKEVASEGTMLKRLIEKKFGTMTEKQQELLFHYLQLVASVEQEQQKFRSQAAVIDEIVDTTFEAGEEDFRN
Experimental: (§1) 1) 0.5-2 mL of an overnight bacteria (already transformed with a nucleic acid construct or composition encoding a eukaryotic Calcium ion channel and an aequorin marker) culture is innoculated into 25 mL of LB-Amp;
(§2) 2) Bacteria are grown to an OD (optical density) of 0.6;
(§3) 3) 1 mM IPTG added for 2-hour induction;
(§4) 4) Bacteria are spun down, resuspended in ½ volume of nominally divalent free ringers and loaded with coelenterazine;
(§5) 5) Bacteria are rinsed and loaded into 96 well plate ([…]);
(§6) 6) Plate is put in a plate reader, e.g., a Wallac Victor 3;
(§7) 7) Plate is shaken for 2 sec then rested for 5 seconds;
(§8) 8) 10 reads are taken 1 second apart;
(§9) 9) 5 μL of 20 mM CaCl2 is injected;
(§10) 10) 50 reads are taken 1 second apart;
(§11) Note: When a blocker is present, it is added before the plate is put in the reader.
(§12) A further indicator of the functional activity of the ion channel is whether its activity is sensitive to treatment with agonistic or inhibitory agents. FIG. 5 summarizes experiments conducted to address this issue. […] Furthermore, the calcium-flux mediating activity of the channels is inhibited following addition of the calcium channel inhibitor, lanthanum.

[2] = target: T2, rat TrpV1 calcium channel (Rattus norvegicus, UniProt O35433); assay: aequorin calcium flux assay in bacterial cells expressing rat TrpV1
T2 construct: expressed in transfected cells; host or cells: E. coli (Rosetta-Gami B (DE3) pLysS, Novagen), dual-T7 expression plasmid, co-expressed with aequorin
T2 sequence (O35433 whole entry): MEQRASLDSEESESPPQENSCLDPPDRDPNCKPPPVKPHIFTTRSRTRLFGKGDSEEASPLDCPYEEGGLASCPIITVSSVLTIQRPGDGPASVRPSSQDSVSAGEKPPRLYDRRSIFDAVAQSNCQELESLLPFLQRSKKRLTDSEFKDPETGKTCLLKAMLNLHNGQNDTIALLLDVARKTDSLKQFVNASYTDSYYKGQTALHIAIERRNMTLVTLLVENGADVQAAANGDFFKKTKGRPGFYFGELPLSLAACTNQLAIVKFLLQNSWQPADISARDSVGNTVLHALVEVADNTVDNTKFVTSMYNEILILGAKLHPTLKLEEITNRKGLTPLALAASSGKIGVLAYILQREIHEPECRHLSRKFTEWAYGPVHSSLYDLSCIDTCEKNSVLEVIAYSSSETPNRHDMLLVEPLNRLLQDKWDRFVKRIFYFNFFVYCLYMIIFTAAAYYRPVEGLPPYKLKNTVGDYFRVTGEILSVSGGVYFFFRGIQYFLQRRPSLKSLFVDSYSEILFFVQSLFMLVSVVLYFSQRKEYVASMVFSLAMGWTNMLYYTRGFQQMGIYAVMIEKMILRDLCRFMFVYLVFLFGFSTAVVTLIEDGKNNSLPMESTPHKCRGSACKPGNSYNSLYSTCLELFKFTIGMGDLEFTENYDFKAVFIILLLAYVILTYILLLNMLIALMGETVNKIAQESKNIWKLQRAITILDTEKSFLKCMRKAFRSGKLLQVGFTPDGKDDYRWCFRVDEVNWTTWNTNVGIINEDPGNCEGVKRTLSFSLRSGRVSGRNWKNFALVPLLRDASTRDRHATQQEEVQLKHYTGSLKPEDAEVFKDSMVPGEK
Experimental: as §1, §2, §3, §4, §5, §6, §7, §8, §9, §10, §11, §12
(§13) The Trp channel blocker ruthenium red inhibits TrpV1 mediated calcium flux in bacterial cells or CHO cells.

rat TrpV1 = target: T3, rat TrpV1 (Rattus norvegicus, UniProt O35433); assay: TrpV1 mediated calcium flux in CHO cells; details: FIG. 8
T3 construct: expressed in transfected cells; host or cells: CHO cells
T3 sequence (O35433 whole entry): as above
From the text: as §13

| inhibition of calcium-flux mediating activity of the channel [1] | inhibition of calcium-flux mediating activity of the channel ([2]; TrpV1 expressed in bacterial cells, FIG. 5) | potency (IC50) in bacterial cells compared with CHO cells ([2]; bacterial cells vs CHO cells, FIG. 8) | inhibition of TrpV1 mediated calcium flux ([2]; bacterial cells, FIG. 8) | calculated Hill slope values, CHO cells vs bacterial cells ([2]; comparison between the CHO cells and the bacterial cells, FIG. 8) | inhibition of TrpV1 mediated calcium flux (rat TrpV1) | Structure (SMILES) |
| --- | --- | --- | --- | --- | --- | --- |
| inhibited in a dose dependent fashion | inhibited in a dose dependent fashion | – | – | – | – | [La] [lanthanum] |
| – | – | somewhat less potent | inhibits | not significantly different | inhibits | N.N.N.N.N.N.N.N.N.N.N.N.N.N.[Cl-].[Cl-].[Cl-].[Cl-].[Cl-].[Cl-].[O-2].[O-2].[Ru+3].[Ru+3].[Ru+4] [ruthenium red] |
